The text below walks through data of patent publication US8741862B2, “PHD2 inhibition for blood vessel normalization, and uses thereof” (VIB VZW, priority 2009, dated 2014).

Where “and” joins values, the source holds several entries; their conditions need not be identical. Equal entries are not always repeated. Where two headings read alike, the source gives them in different places.

Data set [1] concerns B16 tumor. In words: Response of B16 tumors to suboptimal cisplatin chemotherapy in WT and PHD2+/− mice. Type of data set: in vivo, mouse. The note with it: for anti-tumor effect in PHD2+/− mice / anti-tumor effect in WT mice: B16 tumor. Here is the method: […] TUMOR MODELS: 5 105 B16F10.9 melanoma and 105 Lewis lung carcinoma (LLC) cells were injected subcutaneously into the right flank or foot pad, respectively. […] Circulating tumor cells were scored on 1 ml of peripheral blood upon red blood cell lysis.
[…] […] The mice were sacrificed at defined time intervals after cell inoculation or when tumors reached a maximum size of 2 cm3.

The nature of data set [2]: Cornea pocket assay with pellets containing VEGF or FGF-2. The class given is in vivo, mouse. The text has this: We also performed cornea pocket assays and implanted pellets, containing VEGF or FGF-2, in endothelial PHD2Cre/+ mice.
Data set [3] has as its system Lewis Lung Carcinoma (LLC). Description: Response of LLC tumors to suboptimal doxorubicin chemotherapy in WT and PHD2+/− mice. The note with it: doxorubicin 2.5 mg/kg 3×/week.
The mark [4] stands for this setting: cisplatin 2.5 mg/kg 3×/week, listed as Cisplatin.
Where [5] appears, read: PHD2+/− hearts upon doxorubicin treatment.
Where [6] appears, read: PHD2+/− hearts upon doxorubicin treatment, versus WT.

As for `N.N.[Cl][Pt][Cl]` [cisplatin], in data set [1] (cisplatin 2.5 mg/kg 3×/week), the “anti-tumor effect in PHD2+/− mice” value was “effective” and the “anti-tumor effect in WT mice” value is on record as “does not kill B16 tumor cells”. Further, in data set [1] (setting [4]), the “anti-tumor effect in PHD2+/− mice” value was “reduced the volume (A) and weight (B) of B16 tumor”; the “anti-tumor effect in WT mice” value was “not effective”. The “tumor size, smaller in PHD2+/− than WT mice” value in data set [1] (cisplatin 2.5 mg/kg 3×/week, B16 tumors, 11 days after initiation of chemotherapy) amounted to 60%. The “tumor apoptosis (active caspase 3)” value in data set [1] (tumors implanted in PHD2+/− mice upon cisplatin treatment) is recorded as “increased”. In data set [1] (tumors implanted in PHD2+/− mice upon cisplatin treatment, compared to WT), the tumor proliferation entry was “reduced”.
For VEGF, the vessel area in data set [2] (PHD2Cre/+ mice, N=4) is 23.2±1.6%; in data set [2] (PHD2lox/+ mice, N=4), 27.7±2.3%. Besides, the “branching points per mm2” value in data set [2] (mouse, in vivo) is 387±52 per mm2 and 345±60 per mm2.
On to `COc1cccc2c1C(=O)c1c(O)c3c(c(O)c1C2=O)C[C@@](O)(C(=O)CO)C[C@@H]3O[C@H]1C[C@H](N)[C@H](O)[C@H](C)O1` [doxorubicin], for which the “anti-tumor effect in PHD2+/− mice” value in data set [3] is “responsive”; in data set [3] (listed as Doxorubicin) it was “reduced the volume of LLC (Lewis lung carcinoma) tumor”. Moreover, the “anti-tumor effect in WT mice” value in data set [3] (WT mice) was “not effective”. The cardiac hypertrophy entry (PHD1 and PHD3 deficient mice after 2 months of treatment) is given as “significant cardiac hypertrophy”. Also, the capillary perfusion result under setting [5] is recorded as “preserved” and the capillary perfusion result (WT hearts upon doxorubicin treatment) is listed as “not preserved”. Also, under setting [5], the “oxidative stress (cardiac ROS)” value is “reduced”. Besides, the “Brain Natriuretic Peptide (BNP) expression” value under setting [6] is “lower levels”. The interstitial fibrosis result under setting [6] is on record as “reduced interstitial fibrosis”. Besides, the “ejection fraction (EF)” value reads like this: (PHD2+/− mice upon doxorubicin treatment) “maintain or preserve the baseline EF levels”; (wild-type mice upon doxorubicin treatment) “decreases”. Further, under “doxorubicin 2.5 mg/kg 3×/week for four weeks, PHD2+/− mice”, the cardiac damage entry is reported as “protected against cardiac damage”.
“FGF-2: growth factor implanted as pellet in cornea pocket assay”: in data set [2] (PHD2Cre/+ mice, N=4), the “branching points per mm2” value came out at 580±87 per mm2 and the vessel area stood at 33.4±4%. Moreover, in data set [2] (PHD2lox/+ mice, N=4), the “branching points per mm2” value came to 511±48 per mm2.
